In patent publication US10246712B2, “Genetic or pharmacological reduction of PERK enhances cortical- and hippocampus-dependent cognitive function” (Carmel-Haifa University Economic Corp. Ltd, priority 2015, dated 2019):

How the values were obtained:
[1] = test system: ATF4; assay: Immunoblot of ATF4 protein levels in rat insular cortex (IC); type: in vivo; conditions: 1 μl, 100 nM injection to the IC; n=16; data not shown
Protocol: The rats were cannulated as described in Barki-Harrington et al. (2009). Briefly, the rats were anesthetized by administration of equithesin (0.3 ml/100 g), comprising 2.12% (w/v) MgSO4, 10% (v/v) ethanol, 39.1% (v/v) propyleneglycol, 0.98% (w/v) sodium pentobarbital, and 4.2% (w/v) chloral hydrate. They were restrained in a stereotactic frame (Steolting Europe, Dublin-Ireland) and stainless steel guide cannulae (23-gauge) were bilaterally implanted into the insular cortex, angled at (with reference to bregma), anteroposterior=+1.2 mm, lateral±5.5 mm, and ventral 5.0 mm (1 mm ahead of injecting cannula). Two skull screws were inserted into the skull, and acrylic dental cement was applied to secure the cannulae in position. […]
At the end of the behavioral procedure, the brains were removed, and snap-frozen in liquid nitrogen. […] Protein content was determined with the BCA Protein Assay Kit (GE Healthcare). […]
Samples were prepared in SDS sample buffer, subjected to 7.5-10% SDS-PAGE and Western blot analysis. […] The immunoblots were quantified with a CCD camera and Quantity One software (Bio-Rad, USA). Each sample was measured relative to the background. Phosphorylation levels were calculated as the ratio between chemiluminescence values of the antibody directed against the phosphoproteins and those of the antibody directed against the phosphorylation state independent forms of the proteins.

[2] = test system: p-eIF2α; assay: Immunoblot of p-eIF2α levels in CA1 punches; type: in vivo, mouse; conditions: CA1 punches after 100 nM infusion into CA1, adult mice; vs vehicle
[3] = target: T1, PERK (Rattus norvegicus, UniProt Q9Z1Z1); type: in vivo; conditions: 0.1% saccharin; 1 μl 100 nM into IC 20 min prior to novel taste; test day1; n=8
T1 construct: the PERK shRNA lentivirus was stereotacticaly injected to the IC of adult rats; from tissue; host or cells: insular cortex of adult male Wistar Hola rats, in vivo
T1 sequence (Q9Z1Z1 28-1108): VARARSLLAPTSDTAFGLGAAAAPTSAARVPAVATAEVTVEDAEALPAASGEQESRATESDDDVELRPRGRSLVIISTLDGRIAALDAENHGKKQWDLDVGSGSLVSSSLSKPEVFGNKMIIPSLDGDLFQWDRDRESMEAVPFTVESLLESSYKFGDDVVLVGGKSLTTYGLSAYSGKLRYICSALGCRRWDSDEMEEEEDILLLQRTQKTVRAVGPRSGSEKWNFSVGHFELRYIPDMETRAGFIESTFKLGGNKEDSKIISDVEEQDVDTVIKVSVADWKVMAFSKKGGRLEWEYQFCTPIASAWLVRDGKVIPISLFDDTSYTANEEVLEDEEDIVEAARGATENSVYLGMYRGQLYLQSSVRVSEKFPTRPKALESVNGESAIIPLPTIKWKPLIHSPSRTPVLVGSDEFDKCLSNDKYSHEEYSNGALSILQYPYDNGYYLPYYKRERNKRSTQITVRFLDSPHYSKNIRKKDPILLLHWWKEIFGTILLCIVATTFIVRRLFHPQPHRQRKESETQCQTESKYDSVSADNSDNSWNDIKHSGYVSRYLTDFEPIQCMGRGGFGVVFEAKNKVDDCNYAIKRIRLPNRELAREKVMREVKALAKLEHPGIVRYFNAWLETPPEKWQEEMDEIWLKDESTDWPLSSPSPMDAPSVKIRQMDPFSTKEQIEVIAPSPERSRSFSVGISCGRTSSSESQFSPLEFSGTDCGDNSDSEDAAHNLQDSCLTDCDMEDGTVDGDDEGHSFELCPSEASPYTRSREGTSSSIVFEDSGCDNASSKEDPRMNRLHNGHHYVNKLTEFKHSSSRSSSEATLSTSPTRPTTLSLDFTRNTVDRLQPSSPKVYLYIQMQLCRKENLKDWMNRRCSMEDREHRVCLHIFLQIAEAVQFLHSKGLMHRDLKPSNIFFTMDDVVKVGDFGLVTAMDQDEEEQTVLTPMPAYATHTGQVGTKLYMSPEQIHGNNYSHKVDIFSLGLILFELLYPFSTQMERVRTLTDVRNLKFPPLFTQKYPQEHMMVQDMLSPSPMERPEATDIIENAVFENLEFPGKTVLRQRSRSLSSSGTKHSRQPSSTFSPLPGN
Protocol: For virus infusions, rats were first anesthetized with Ketamine (120 mg/kg) and Xylazine (6 mg/kg) and placed into a stereotactic frame (Steolting Europe, Dublin—Ireland) (Using a 32-gauge stainless steel injector attached to a stereotactic infusion pump, rats received 1 μl of lentivirus encoding PERK shRNA or lentivirus harboring a scrambled sequence over 10 min into the insular cortex (anteroposterior, +1.2 mm relative to bregma; lateral, ±5.5 mm; ventral, −6.0 mm) according to the atlas of Paxinos, G. & Watson, C. (2006). The injector was lets in place for 5 min before and after infusion to minimize fluid retraction. The rats were allowed at least 7 days to recover from the surgery before any behavior experiments were conducted.
The rats were cannulated as described in Barki-Harrington et al. (2009). […]
The rats were separated into individual housing cages and underwent a 3-day water-restriction training session, in which once a day for 20 min, they were offered 20 ml of water from two pipettes, each containing 10 ml. […] The behavioral data are presented in terms of preference index, expressed as a percentage, [ml saccharin/(ml water plus ml saccharin)]×100, in which the quantities are those consumed during each test.

Cn1cc(-c2ccc3c(c2)CCN3C(=O)Cc2cccc(C(F)(F)F)c2)c2c(N)ncnc21 [GSK2606414, 7-methyl-5-(1-{[3-(trifluoromethyl)phenyl]acetyl}-2,3-dihydro-1H-indol-5-yl)-7H-pyrrolo[2,3-d]pyrimidin-4-amine]
reduction in ATF4 protein levels [1]: 30%
p-eIF2α levels [2]: significant reduction
preference index [3]: 83%±2.2
